Results from US6713455B2, “6-O-carbamate-11,12-lacto-ketolide antimicrobials” (Ortho-McNeil Pharmaceutical, Inc., priority 2001, dated 2004).
In brackets after ≈: the same amount, converted by molar mass.

How the values were obtained:
Test in all cases: MIC, microdilution broth method (NCCLS)
Assay type in all cases: cell-based
Conditions in all cases: 35° C., 16-20 hours
[1] = system: S. aureus ATCC29213
Method: (§1) Minimal inhibitory concentration (MIC) has been an indicator of in vitro antibacterial activity widely used in the art. The in vitro antimicrobial activity of the compounds was determined by the microdilution broth method following the test method from the National Committee for Clinical Laboratory Standards (NCCLS). This method is described in the NCCLS Document M7-A4, Vol.17, No.2, “Methods for Dilution Antimicrobial Susceptibility Test for Bacteria that Grow Aerobically—Fourth Edition”, which is incorporated herein by reference.
(§2) In this method two-fold serial dilutions of drug in cation adjusted Mueller-Hinton broth are added to wells in microdilution trays. The test organisms are prepared by adjusting the turbidity of actively growing broth cultures so that the final concentration of test organism after it is added to the wells is approximately 5×10^4 CFU/well.
(§3) Following inoculation of the microdilution trays, the trays are incubated at 35° C. for 16-20 hours and then read. […] The amount of growth in the wells containing the test compound is compared with the amount of growth in the growth-control wells (no test compound) used in each tray. As set forth in Table 1, compounds of the present invention were tested against a variety of Gram positive and Gram negative pathogenic bacteria resulting in a range of activities depending on the organism tested.

[2] = system: E. faecalis ATCC29212
Method: as §1, §2, §3

[3] = system: E. coli OC2605
Method: as §1, §2, §3

[4] = system: S. pneumoniae ATCC49619
Method: as §1, §2, §3

[5] = system: H. influenzae ATCC49247
Method: as §1, §2, §3

SMILES	MIC (μg/mL) B [1] [µg/mL]	MIC (μg/mL) C [2] [µg/mL]	MIC (μg/mL) A [3] [µg/mL]	MIC (μg/mL) D [4] [µg/mL]	MIC (μg/mL) E [5] [µg/mL]	MIC ([1]; Staphylococcus aureus) [µg/mL]	MIC ([2]; Enterococcus faecalis) [µg/mL]	MIC ([3]; Escherichia coli) [µg/mL]	MIC ([4]; Streptococcus pneumoniae) [µg/mL]	MIC ([5]; Haemophilus influenzae) [µg/mL]
CCC1OC(=O)C(C)C(=O)C(C)C(OC2OC(C)CC(N(C)C)C2O)C(C)(OC(=O)NCC=Cc2ccc(-c3ncccn3)cc2F)CC(C)C(=O)C(C)C2CC(=O)OC12C (stereo not drawn) [Compound 32]	0.5 (≈ 0.586 µM)	0.25 (≈ 0.293 µM)	>16	0.06 (≈ 0.0703 µM)	8 (≈ 9.38 µM)	–	–	–	–	–
CCC1OC(=O)C(C)C(=O)C(C)C(OC2OC(C)CC(N(C)C)C2O)C(C)(OC(=O)NCC=Cc2ccccn2)CC(C)C(=O)C(C)C2CC(=O)OC12C (stereo not drawn) [Compound 33]	2 (≈ 2.64 µM)	0.5 (≈ 0.66 µM)	>16	0.12 (≈ 0.158 µM)	8 (≈ 10.6 µM)	–	–	–	–	–
CCC1OC(=O)C(C)C(=O)C(C)C(OC2OC(C)CC(N(C)C)C2O)C(C)(OC(=O)NCC=Cc2cccnc2)CC(C)C(=O)C(C)C2CC(=O)OC12C (stereo not drawn) [Compound 34]	0.5 (≈ 0.66 µM)	0.12 (≈ 0.158 µM)	>16	0.06 (≈ 0.0792 µM)	2 (≈ 2.64 µM)	–	–	–	–	–
CC[C@H]1OC(=O)[C@H](C)C(=O)[C@H](C)[C@@H](OC2O[C@H](C)C[C@H](N(C)C)[C@H]2O)[C@](C)(OC(=O)NC/C=C/c2cn(-c3ncccn3)cn2)C[C@@H](C)C(=O)C(C)C2CC(=O)O[C@@]21C (stereo partly drawn) [Compound 37]	–	–	–	–	–	0.5 (≈ 0.606 µM)	0.12 (≈ 0.145 µM)	> 16	0.03 (≈ 0.0364 µM)	4 (≈ 4.85 µM)
CCC1OC(=O)C(C)C(=O)C(C)C(OC2OC(C)CC(N(C)C)C2O)C(C)(OC(=O)NCC=Cc2ccc3nccnc3c2)CC(C)C(=O)C(C)C2CC(=O)OC12C (stereo not drawn) [Compound 38]	0.5 (≈ 0.618 µM)	0.12 (≈ 0.148 µM)	>16	0.03 (≈ 0.0371 µM)	2 (≈ 2.47 µM)	–	–	–	–	–
CCC1OC(=O)C(C)C(=O)C(C)C(OC2OC(C)CC(N(C)C)C2O)C(C)(OC(=O)NCC=Cc2cncc(-c3ncccn3)c2)CC(C)C(=O)C(C)C2CC(=O)OC12C (stereo not drawn) [Compound 40]	0.25 (≈ 0.299 µM)	0.12 (≈ 0.144 µM)	16 (≈ 19.1 µM)	0.03 (≈ 0.0359 µM)	1 (≈ 1.2 µM)	–	–	–	–	–

Second part, the compound after the results:

MIC (μg/mL) B [1] [µg/mL]	MIC (μg/mL) C [2] [µg/mL]	MIC (μg/mL) A [3] [µg/mL]	MIC (μg/mL) D [4] [µg/mL]	MIC (μg/mL) E [5] [µg/mL]	MIC ([1]; Staphylococcus aureus) [µg/mL]	MIC ([2]; Enterococcus faecalis) [µg/mL]	MIC ([3]; Escherichia coli) [µg/mL]	MIC ([4]; Streptococcus pneumoniae) [µg/mL]	MIC ([5]; Haemophilus influenzae) [µg/mL]	SMILES
2 (≈ 2.56 µM)	0.5 (≈ 0.639 µM)	>16	0.12 (≈ 0.153 µM)	8 (≈ 10.2 µM)	–	–	–	–	–	CCC1OC(=O)C(C)C(=O)C(C)C(OC2OC(C)CC(N(C)C)C2O)C(C)(OC(=O)NCc2ccc3ccccc3n2)CC(C)C(=O)C(C)C2CC(=O)OC12C (stereo not drawn) [Compound 28]
0.5 (≈ 0.6 µM)	0.25 (≈ 0.3 µM)	>16	0.06 (≈ 0.0719 µM)	2 (≈ 2.4 µM)	–	–	–	–	–	CCC1OC(=O)C(C)C(=O)C(C)C(OC2OC(C)CC(N(C)C)C2O)C(C)(OC(=O)NCC=Cc2ccc(-c3ccccn3)cc2)CC(C)C(=O)C(C)C2CC(=O)OC12C (stereo not drawn) [Compound 29]
0.25 (≈ 0.309 µM)	0.06 (≈ 0.0743 µM)	16 (≈ 19.8 µM)	0.03 (≈ 0.0371 µM)	>16	–	–	–	–	–	CCC1OC(=O)C(C)C(=O)C(C)C(OC2OC(C)CC(N(C)C)C2O)C(C)(OC(=O)NCC=Cc2ccc3cccnc3c2)CC(C)C(=O)C(C)C2CC(=O)OC12C (stereo not drawn) [Compound 31]
0.5 (≈ 0.6 µM)	0.25 (≈ 0.3 µM)	>16	0.12 (≈ 0.144 µM)	4 (≈ 4.8 µM)	–	–	–	–	–	CCC1OC(=O)C(C)C(=O)C(C)C(OC2OC(C)CC(N(C)C)C2O)C(C)(OC(=O)NCC=Cc2ccc(-c3ccccc3)nc2)CC(C)C(=O)C(C)C2CC(=O)OC12C (stereo not drawn) [Compound 35]
4 (≈ 4.52 µM)	1 (≈ 1.13 µM)	>16	0.25 (≈ 0.283 µM)	16 (≈ 18.1 µM)	–	–	–	–	–	CCC1OC(=O)C(C)C(=O)C(C)C(OC2OC(C)CC(N(C)C)C2O)C(C)(OC(=O)NCc2ccc(C=Cc3ccc4ccccc4n3)cc2)CC(C)C(=O)C(C)C2CC(=O)OC12C (stereo not drawn) [Compound 36]
0.5 (≈ 0.619 µM)	0.12 (≈ 0.149 µM)	16 (≈ 19.8 µM)	0.03 (≈ 0.0371 µM)	4 (≈ 4.95 µM)	–	–	–	–	–	CCC1OC(=O)C(C)C(=O)C(C)C(OC2OC(C)CC(N(C)C)C2O)C(C)(OC(=O)NCC=Cc2ccnc3ccccc23)CC(C)C(=O)C(C)C2CC(=O)OC12C (stereo not drawn) [Compound 39]
